Experimental findings from paper PMC12472391, “Borylated Five-Membered Ring Iminosugars: Synthesis, Spectroscopic Analysis, and Biological Evaluation for Glycosidase Inhibition and Anticancer Properties for Application in Boron Neutron Capture Therapy (BNCT)—Part 1” (Pharmaceuticals, 2025) are described below.

For assay [1], the target named is T1, β-D-galactosidase (bovine liver) (Bos taurus, UniProt Q58D55).
T1 sequence (Q58D55 28-653): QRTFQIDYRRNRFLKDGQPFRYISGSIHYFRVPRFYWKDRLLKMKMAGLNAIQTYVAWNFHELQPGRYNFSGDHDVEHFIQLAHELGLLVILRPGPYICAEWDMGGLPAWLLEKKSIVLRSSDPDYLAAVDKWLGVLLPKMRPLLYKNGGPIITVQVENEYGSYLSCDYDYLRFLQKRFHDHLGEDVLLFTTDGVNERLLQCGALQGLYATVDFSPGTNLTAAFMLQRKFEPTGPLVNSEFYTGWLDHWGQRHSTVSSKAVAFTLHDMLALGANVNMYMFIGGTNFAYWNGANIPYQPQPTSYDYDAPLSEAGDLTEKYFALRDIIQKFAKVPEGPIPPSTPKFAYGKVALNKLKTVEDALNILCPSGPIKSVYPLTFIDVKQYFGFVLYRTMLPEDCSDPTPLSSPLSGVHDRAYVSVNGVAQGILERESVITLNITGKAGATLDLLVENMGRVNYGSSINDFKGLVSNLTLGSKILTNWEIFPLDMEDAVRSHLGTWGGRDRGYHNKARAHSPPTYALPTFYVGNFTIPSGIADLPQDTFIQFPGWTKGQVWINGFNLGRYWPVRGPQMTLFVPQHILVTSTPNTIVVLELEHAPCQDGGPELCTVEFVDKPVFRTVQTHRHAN
The assay is described as follows: Glycosidase inhibition, Table 6 (Laboratory 1). In kind it is biochemical. From the text: (§1) The enzymes α-D-glucosidase (from yeast), β-D-glucosidases (from almond and bovine liver), α-D-galactosidase (from coffee beans), β-D-galactosidase (from bovine liver), α-D-mannosidase (from Jack bean), β-D-mannosidase (from snail), α-L-rhamnosidase (from Penicillium decumbens), α-L-fucosidase (from bovine kidney), trehalase (from porcine kidney), β-D-glucuronidases (from E. coli and bovine liver), amyloglucosidase (from A. niger), para-nitrophenyl glycosides, and various disaccharides were purchased from Sigma-Aldrich Co. (St. Louis, MO, USA).
(§2) Brush border membranes were prepared from the rat small intestine according to the method of Kessler et al., and were assayed at pH 6.8 for rat intestinal maltase using maltose. For rat intestinal maltase, porcine kidney trehalase, and A. niger amyloglucosidase activities, the reaction mixture contained maltose (25 mM) and the appropriate amount of enzyme, and the incubations were performed for 10–30 min at 37 °C. The reaction was stopped by heating at 100 °C for 3 min. After centrifugation (600× g; 10 min), the resulting reaction mixture was added to the Glucose CII-test Wako (Wako Pure Chemical Ind., Osaka, Japan). The absorbance at 505 nm was measured to determine the amount of the released D-glucose. Other glycosidase activities were determined using an appropriate para-nitrophenyl glycoside as substrate at the optimum pH of each enzyme. The reaction mixture contained the substrate (2 mM) and the appropriate amount of enzyme. The reaction was stopped by the addition of Na2CO3 (400 mM). The released para-nitrophenol was measured spectrometrically at 400 nm. All reactions run in methanol.

The target of assay [2] is T2, α-L-fucosidase (from bovine kidney) (Bos taurus, UniProt Q2KIM0).
T2 construct: purchased Sigma-Aldrich Co
T2 sequence (Q2KIM0 23-468): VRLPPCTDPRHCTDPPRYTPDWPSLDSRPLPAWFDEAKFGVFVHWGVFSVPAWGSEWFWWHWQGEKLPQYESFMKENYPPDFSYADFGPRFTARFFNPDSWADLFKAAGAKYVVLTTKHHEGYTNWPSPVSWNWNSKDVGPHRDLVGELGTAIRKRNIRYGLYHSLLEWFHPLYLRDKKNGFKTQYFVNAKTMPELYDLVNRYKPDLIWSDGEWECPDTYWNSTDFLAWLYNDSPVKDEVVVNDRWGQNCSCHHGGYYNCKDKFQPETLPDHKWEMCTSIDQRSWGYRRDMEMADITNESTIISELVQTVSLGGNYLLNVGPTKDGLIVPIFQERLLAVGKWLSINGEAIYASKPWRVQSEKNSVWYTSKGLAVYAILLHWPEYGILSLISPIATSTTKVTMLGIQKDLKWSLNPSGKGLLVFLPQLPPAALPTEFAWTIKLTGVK
The assay is described as follows: Glycosidase inhibition, Table 6 (Laboratory 1). In kind it is biochemical.
Description: as §1, §2

One may read the inhibition as the drop in the measured response relative to a control, in per cent. High values mean a strong effect, low ones a weak effect. Consider `N[C@@H](Cc1ccc(B(O)O)cc1)C(=O)O` [BPA, 4-borono-L-phenylalanine, reference compound], for which testing at 100 µM in assay [1] gave an inhibition of 10.9%. Regarding `CC1(C)O[C@H]2O[C@H]3[C@@H]([C@H]2O1)N(Cc1ccccc1)C[C@H]3O` [Compound 3, N-Benzyl-3,6-dideoxy-3,6-imino-1,2-O-isopropylidene-α-D-gulofuranose], the inhibition at 100 µM came to 26.1% in assay [1] and 0% in assay [2]. `OC1O[C@@H]2[C@H]([C@H]1O)N(Cc1ccccc1)C[C@H]2O` (stereo partly drawn) [Compound 4, N-Benzyl-3,6-dideoxy-3,6-imino-D-gulofuranose]: in assay [2], the inhibition at 1000 µM is 0.4%. `OC[C@H](O)[C@@H]1[C@H](O)[C@H](O)CN1Cc1ccccc1` [Compound 5, N-Benzyl-1,4-dideoxy-1,4-imino-L-gulitol]: the inhibition at 100 µM in assay [1] is 0%. Turning to `N[C@@H](Cc1ccc(B(O)O)cc1)C(=O)O` [^10B-BPA, reference compound], the “β-D-Galactosidase Bovine Liver, inhibition % at 100 μM” value in assay [1] (100 μM) is “^c NI ^d (0%)”. Moreover, the “α-L-Fucosidase Bovine Kidney, inhibition % at 100 μM” value in assay [2] (100 μM) is listed as “^c NI ^d (0%)”. Take `CC1(C)O[C@H]2O[C@H]3[C@@H]([C@H]2O1)N(Cc1ccc(B2OC(C)(C)C(C)(C)O2)cc1)C[C@H]3O` [para 6, N-(4-Methylphenylboronic acid pinacol ester)-3,6-dideoxy-3,6-imino-1,2-O-isopropylidene-α-D-gulofuranose]: the values for the inhibition at 100 µM in assay [1] and in assay [2] were 22.3% and 0%, respectively.

The compound `OB(O)c1ccc(CN2CC(O)C3OC(O)C(O)C32)cc1` [para 7, N-(4-Methylphenylboronic acid)-3,6-dideoxy-3,6-imino-D-gulofuranose] returned an inhibition at 1000 µM in assay [2] of 0.8%. With `OC[C@H](O)[C@@H]1[C@H](O)[C@H](O)CN1Cc1ccc(B(O)O)cc1` [para 8, N-(4-Methylphenylboronic acid)-1,4-dideoxy-1,4-imino-L-gulitol], in assay [2], at 1000 µM the inhibition was 1.7%.

With “borocaptate sodium [BSH, reference compound]”, the “β-D-Galactosidase Bovine Liver, inhibition % at 1000 μM” value in assay [1] (1000 μM) is “^a NI ^b (0%)”. Further, the “α-L-Fucosidase Bovine Kidney, inhibition % at 1000 μM” value in assay [2] (1000 μM) is recorded as “^a NI ^b (0%)”.
